pIC50: −log10 of the molar value.
Legend:
RET-NCOA4 (PTC3) = target: T1, RET-NCOA4 (PTC3) (Homo sapiens, UniProt P07949); test: Biochemical kinase assay (Reaction Biology, 33P ATP); conditions: 10 μM ATP
T1 construct: fusion transcripts composed of the 3′ end of RET kinase domain and the 5′ end of separate partner genes; NCOA4 N-terminal part (fusion partner); purchased Reaction Biology Corporation (assay run at the CRO)
Protocol: (§1) The biochemical kinase assay was performed at Reaction Biology Corporation (www.reactionbiology.com, Malvern, Pa.) following the procedures described in the reference (Anastassiadis T, et al Nat Biotechnol. 2011, 29, 1039). Specific kinase/substrate pairs along with required cofactors were prepared in reaction buffer; 20 mM Hepes pH 7.5, 10 mM MgCl2, 1 mM EGTA, 0.02% Brij35, 0.02 mg/ml BSA, 0.1 mM Na3VO4, 2 mM DTIT, 1% DMSO. Compounds were delivered into the reaction, followed ˜20 minutes later by addition of a mixture of ATP (Sigma, St. Louis Mo.) and ^33P ATP (Perkin Elmer, Waltham Mass.) to a final concentration of 10 μM. Reactions were carried out at room temperature for 120 min, followed by spotting of the reactions onto P81 ion exchange filter paper (Whatman Inc., Piscataway, N.J.). Unbound phosphate was removed by extensive washing of filters in 0.75% phosphoric acid. […] IC50 values and curve fits were obtained using Prism (GraphPad Software).

RET (V804M) = target: T2, RET (V804M) (Homo sapiens, UniProt P07949, V804M); test: as above; conditions: 10 μM ATP
T2 construct: purchased Reaction Biology Corporation (assay run at the CRO)
Protocol: as §1

RET (Y806H) = target: T3, RET (Y806H) (Homo sapiens, UniProt P07949, Y806H); test: as above; conditions: 10 μM ATP
T3 construct: purchased Reaction Biology Corporation (assay run at the CRO)
Protocol: as §1

RET (M918T) = target: T4, RET (M918T) (Homo sapiens, UniProt P07949, M918T); test: as above; conditions: 10 μM ATP
T4 construct: purchased Reaction Biology Corporation (assay run at the CRO)
Protocol: as §1

YES = target: T5, YES (Homo sapiens, UniProt P07947); test: as above; conditions: 10 μM ATP
T5 construct: purchased Reaction Biology Corporation (assay run at the CRO)
Protocol: as §1

RET (A883F) = target: T6, RET (A883F) (Homo sapiens, UniProt P07949, A883F); test: as above; conditions: 10 μM ATP
T6 construct: purchased Reaction Biology Corporation (assay run at the CRO)
Protocol: as §1

RET = target: T7, RET (Homo sapiens, UniProt P07949); test: as above; conditions: 10 μM ATP
T7 construct: purchased Reaction Biology Corporation (assay run at the CRO)
Protocol: as §1

RET (R749T) = target: T8, RET (R749T) (Homo sapiens, UniProt P07949, R749T); test: as above; conditions: 10 μM ATP
T8 construct: purchased Reaction Biology Corporation (assay run at the CRO)
Protocol: as §1

RET (V804L) = target: T9, RET (V804L) (Homo sapiens, UniProt P07949, V804L); test: as above; conditions: 10 μM ATP
T9 construct: purchased Reaction Biology Corporation (assay run at the CRO)
Protocol: as §1

RET (E762Q) = target: T10, RET (E762Q) (Homo sapiens, UniProt P07949, E762Q); test: as above; conditions: 10 μM ATP
T10 construct: purchased Reaction Biology Corporation (assay run at the CRO)
Protocol: as §1

KG-1 = test: Cell proliferation assay (CellTiter-Glo, 72 hours); assay type: cell-based, human; conditions: Homo sapiens, KG-1, anti-cell proliferation
Outline: (§2)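 Cells used were KG-1 (AML), TT medullary thyroid carcinoma ([…]) and KM12 colon (TPM3-TRKA). Viability was read by CellTiter-Glo ATP luminescence, and IC50 derived by curve fitting.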

KM12 cell (TPM3-TRKA) = test: Cell proliferation assay (CellTiter-Glo, 72 hours); assay type: cell-based, human; conditions: Homo sapiens, KM12, anti-cell proliferation
Outline: as §2

BaF3 KIF5B-RET = target: T11, BaF3 KIF5B-RET (Homo sapiens, UniProt P07949); test: Cell proliferation assay (CellTiter-Glo, 72 hours); assay type: cell-based; conditions: anti-cell proliferation, read-out: BaF3 KIF5B-RET IC50
T11 construct: fused on or other part: P33176 (Kinesin-1 heavy chain)
Outline: (§3)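 Ba/F3 cells were lentivirally transduced with wild-type or mutant KIF5B-RET, puromycin-selected and grown without IL-3. CellTiter-Glo ATP luminescence read viability, and IC50 values came from curve fitting.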

BaF3 KIF5B-RET_V804M = target: T12, BaF3 KIF5B-RET_V804M (Homo sapiens, UniProt P07949, V804M, cells depend on it); test: Cell proliferation assay (CellTiter-Glo, 72 hours); assay type: cell-based; conditions: anti-cell proliferation, read-out: BaF3 KIF5B-RET_V804M IC50
T12 construct: fused on or other part: P33176 (Kinesin-1 heavy chain)
Outline: as §3

BaF3 KIF5B-RET_G810R = target: T13, BaF3 KIF5B-RET_G810R (Homo sapiens, UniProt P07949, G810R, cells depend on it); test: Cell proliferation assay (CellTiter-Glo, 72 hours); assay type: cell-based; conditions: anti-cell proliferation, read-out: BaF3 KIF5B-RET_G810R IC50
T13 construct: fused on or other part: P33176 (Kinesin-1 heavy chain)

BaF3 EML4-ALK = target: T14, BaF3 EML4-ALK (Homo sapiens, UniProt Q9UM73); test: Cell proliferation assay (CellTiter-Glo, 72 hours); assay type: cell-based; conditions: anti-cell proliferation
T14 construct: The EML4-ALK gene (variant 1) was synthesized at GenScript and cloned into pCDH-CMV-MCS-EF1-Puro plasmid (System Biosciences, Inc); fused on or other part: Q9HC35 (Echinoderm microtubule-associated protein-like 4)
Outline: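 Ba/F3 cells were stably transduced with wild-type EML4-ALK variant 1 and selected for IL-3-independent growth. Cells were seeded for 24 h, then exposed to compounds for 72 h at 37 °C, 5% CO2. Viability was read as ATP luminescence and IC50 values were fitted.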

T10 sequence (P07949 29-1114 E762Q): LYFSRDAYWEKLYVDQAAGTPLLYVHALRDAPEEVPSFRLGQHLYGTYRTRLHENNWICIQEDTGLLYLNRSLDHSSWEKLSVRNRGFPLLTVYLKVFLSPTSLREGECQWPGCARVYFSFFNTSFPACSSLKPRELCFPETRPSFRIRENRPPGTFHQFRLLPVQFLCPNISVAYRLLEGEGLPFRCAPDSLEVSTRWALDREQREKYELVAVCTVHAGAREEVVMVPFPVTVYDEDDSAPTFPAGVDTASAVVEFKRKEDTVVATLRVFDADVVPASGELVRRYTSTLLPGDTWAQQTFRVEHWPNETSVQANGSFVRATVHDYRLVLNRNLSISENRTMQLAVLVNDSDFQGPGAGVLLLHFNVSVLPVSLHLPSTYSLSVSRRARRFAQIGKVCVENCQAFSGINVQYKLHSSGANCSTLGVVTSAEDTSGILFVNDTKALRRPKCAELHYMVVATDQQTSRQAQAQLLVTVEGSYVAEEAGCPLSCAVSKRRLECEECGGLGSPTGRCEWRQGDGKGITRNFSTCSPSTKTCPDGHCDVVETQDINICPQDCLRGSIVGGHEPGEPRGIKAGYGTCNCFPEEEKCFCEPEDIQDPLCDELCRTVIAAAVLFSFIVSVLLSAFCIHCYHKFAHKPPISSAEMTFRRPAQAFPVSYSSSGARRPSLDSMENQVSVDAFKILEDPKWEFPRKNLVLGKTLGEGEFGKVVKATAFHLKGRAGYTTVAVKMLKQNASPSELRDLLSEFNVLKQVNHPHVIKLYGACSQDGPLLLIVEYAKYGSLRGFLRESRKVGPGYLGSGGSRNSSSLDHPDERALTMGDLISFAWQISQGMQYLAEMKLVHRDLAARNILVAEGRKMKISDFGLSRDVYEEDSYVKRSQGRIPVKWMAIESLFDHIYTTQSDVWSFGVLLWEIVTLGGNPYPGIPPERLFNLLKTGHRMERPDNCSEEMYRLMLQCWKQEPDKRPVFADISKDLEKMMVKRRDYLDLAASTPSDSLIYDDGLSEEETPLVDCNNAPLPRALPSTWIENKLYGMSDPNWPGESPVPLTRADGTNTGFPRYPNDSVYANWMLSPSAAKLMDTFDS
T7 sequence (P07949 29-1114): as the sequence (P07949 29-1114 E762Q) above, with Q734E counted along it
T11 sequence (P07949 whole entry, change not shown, the tested form may be a part): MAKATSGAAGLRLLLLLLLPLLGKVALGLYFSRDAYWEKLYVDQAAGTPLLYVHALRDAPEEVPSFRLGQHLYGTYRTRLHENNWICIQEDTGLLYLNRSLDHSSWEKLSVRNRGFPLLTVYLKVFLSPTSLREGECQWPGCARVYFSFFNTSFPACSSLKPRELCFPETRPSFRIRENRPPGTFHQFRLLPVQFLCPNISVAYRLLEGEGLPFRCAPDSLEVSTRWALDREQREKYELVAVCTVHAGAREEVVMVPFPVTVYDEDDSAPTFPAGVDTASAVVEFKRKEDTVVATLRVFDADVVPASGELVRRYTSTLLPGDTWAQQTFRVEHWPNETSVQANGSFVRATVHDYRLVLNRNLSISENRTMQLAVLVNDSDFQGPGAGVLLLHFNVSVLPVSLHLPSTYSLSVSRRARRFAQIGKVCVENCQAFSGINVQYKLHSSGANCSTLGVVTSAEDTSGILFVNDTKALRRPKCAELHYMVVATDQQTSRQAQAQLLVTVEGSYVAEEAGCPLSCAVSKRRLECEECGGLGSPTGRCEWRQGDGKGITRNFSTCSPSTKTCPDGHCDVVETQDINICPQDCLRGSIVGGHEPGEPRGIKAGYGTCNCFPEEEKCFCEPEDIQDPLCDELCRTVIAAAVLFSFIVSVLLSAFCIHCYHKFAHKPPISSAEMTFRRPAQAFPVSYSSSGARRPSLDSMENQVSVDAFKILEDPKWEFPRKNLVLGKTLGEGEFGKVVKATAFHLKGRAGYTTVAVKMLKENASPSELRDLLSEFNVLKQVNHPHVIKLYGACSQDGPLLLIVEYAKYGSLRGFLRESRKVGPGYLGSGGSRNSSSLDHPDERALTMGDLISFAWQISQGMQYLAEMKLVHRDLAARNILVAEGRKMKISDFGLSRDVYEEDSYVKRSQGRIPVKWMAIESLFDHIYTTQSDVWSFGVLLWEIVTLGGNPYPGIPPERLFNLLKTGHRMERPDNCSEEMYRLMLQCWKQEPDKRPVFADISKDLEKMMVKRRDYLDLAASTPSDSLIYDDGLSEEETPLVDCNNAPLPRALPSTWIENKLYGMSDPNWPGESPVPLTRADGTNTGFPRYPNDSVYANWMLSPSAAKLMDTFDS
T5 sequence (P07947 whole entry): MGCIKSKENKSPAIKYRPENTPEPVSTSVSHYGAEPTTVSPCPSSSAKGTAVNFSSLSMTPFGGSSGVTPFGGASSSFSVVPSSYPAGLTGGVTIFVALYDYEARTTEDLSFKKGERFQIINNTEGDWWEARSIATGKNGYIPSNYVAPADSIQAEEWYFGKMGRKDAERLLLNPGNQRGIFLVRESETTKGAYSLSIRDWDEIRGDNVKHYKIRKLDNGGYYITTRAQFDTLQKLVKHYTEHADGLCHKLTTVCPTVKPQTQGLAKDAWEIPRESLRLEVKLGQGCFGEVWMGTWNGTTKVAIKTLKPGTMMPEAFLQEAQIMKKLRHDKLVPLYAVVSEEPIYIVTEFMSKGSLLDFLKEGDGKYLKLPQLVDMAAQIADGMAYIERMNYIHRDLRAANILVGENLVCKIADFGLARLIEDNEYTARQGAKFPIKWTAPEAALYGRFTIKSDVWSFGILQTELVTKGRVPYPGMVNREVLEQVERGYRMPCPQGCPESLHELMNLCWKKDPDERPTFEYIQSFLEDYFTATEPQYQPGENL
T2 sequence (P07949 29-1114 V804M): as the sequence (P07949 29-1114 E762Q) above, with Q734E, V776M counted along it
T8 sequence (P07949 29-1114 R749T): as the sequence (P07949 29-1114 E762Q) above, with R721T, Q734E counted along it
T1 sequence (P07949 with tags, fused parts or gaps): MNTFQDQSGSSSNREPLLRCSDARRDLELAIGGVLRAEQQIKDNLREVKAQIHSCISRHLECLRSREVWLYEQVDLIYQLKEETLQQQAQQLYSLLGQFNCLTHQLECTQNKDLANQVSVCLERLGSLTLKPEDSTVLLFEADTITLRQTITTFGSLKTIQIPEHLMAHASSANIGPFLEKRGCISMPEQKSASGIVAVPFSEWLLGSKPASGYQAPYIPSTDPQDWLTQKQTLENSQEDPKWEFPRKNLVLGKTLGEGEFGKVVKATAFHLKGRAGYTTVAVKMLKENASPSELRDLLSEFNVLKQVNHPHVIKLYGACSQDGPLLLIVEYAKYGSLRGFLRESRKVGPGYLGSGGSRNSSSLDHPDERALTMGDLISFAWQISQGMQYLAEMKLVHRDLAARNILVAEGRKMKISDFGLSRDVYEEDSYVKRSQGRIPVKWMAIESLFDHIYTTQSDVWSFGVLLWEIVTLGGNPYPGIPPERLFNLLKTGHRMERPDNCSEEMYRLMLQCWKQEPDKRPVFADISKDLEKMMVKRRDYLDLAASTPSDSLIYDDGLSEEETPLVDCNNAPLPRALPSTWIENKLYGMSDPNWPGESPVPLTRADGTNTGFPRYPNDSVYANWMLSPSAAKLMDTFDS
T3 sequence (P07949 29-1114 Y806H): as the sequence (P07949 29-1114 E762Q) above, with Q734E, Y778H counted along it
T4 sequence (P07949 29-1114 M918T): as the sequence (P07949 29-1114 E762Q) above, with Q734E, M890T counted along it
T9 sequence (P07949 29-1114 V804L): as the sequence (P07949 29-1114 E762Q) above, with Q734E, V776L counted along it
T13 sequence (P07949 whole entry G810R, the tested form may be a part): as the sequence (P07949 whole entry, change not shown, the tested form may be a part) above, with G810R counted along it
T6 sequence (P07949 29-1114 A883F): as the sequence (P07949 29-1114 E762Q) above, with Q734E, A855F counted along it
T12 sequence (P07949 whole entry V804M, the tested form may be a part): as the sequence (P07949 whole entry, change not shown, the tested form may be a part) above, with V804M counted along it

SMILES | IC50 (RET-NCOA4 (PTC3)) [nM] | IC50 (RET (V804M)) [nM] | IC50 (RET (Y806H)) [nM] | IC50 (RET (M918T)) [nM] | IC50 (YES) [nM] | IC50 (RET (A883F)) [nM] | IC50 (RET) [nM] | IC50 (RET (R749T)) [nM] | IC50 (RET (V804L)) [nM] | IC50 (RET (E762Q)) [nM] | pIC50 (KG-1) | pIC50 (KM12 cell (TPM3-TRKA)) | GI50 (BaF3 KIF5B-RET) [nM] | GI50 (BaF3 KIF5B-RET_V804M) [nM] | GI50 (BaF3 KIF5B-RET_G810R) [nM] | GI50 (BaF3 EML4-ALK) [nM]
C[C@H]1CNC(=O)c2cnn3cc4c(nc23)N(Cc2cc(F)ccc2O1)[C@@H]1CCC[C@@H]1O4 [Compound 1, (3aR,11S,20aS)-7-fluoro-11-methyl-2,3,3a,12,13,20a-hexahydro-1H,5H-17-19-(metheno)cyclopenta[5,6][1,4] oxazino[3,4-i]pyrazolo[4,3-f][1,4,8,10]benzoxatriacyclotridecin-14(11H)-one] | 0.0635 | 7.86 | 0.385 | 0.114 | 1.72 | 0.52 | 0.0994 | 0.271 | 10 | 2.07 | 6.88 | 8.52 | 0.25 | 1000 | 30 | 211
C[C@H]1CNC(=O)c2cnn3cc4c(nc23)N(Cc2cc(F)cnc2O1)[C@@H]1CCC[C@@H]1O4 [Compound 5, (3aR,11S,20aS)-7-fluoro-11-methyl-2,3,3a,12,13,20a-hexahydro-1H,5H-17-19-(metheno)cyclopenta[5,6][1,4] oxazino[3,4-i]pyrazolo[4,3-f]pyrido[3,2-l][1,4,8,10]oxatriazacyclotridecin-14(11H)-one] | 0.691 | 18.8 | 0.261 | 1.42 | 2.64 | 3.08 | 1.01 | 0.32 | 2350 | 0.58 | 7.57 | 8.16 | 2.4 | 598 | 22 | 516

Source: US10745416B2, “Macrocyclic compounds for treating disease” (Turning Point Therapeutics, Inc., priority 2017, dated 2020)
